Assay results published in PubChem BioAssay AID179 (DTP/NCI, 2004).
Activity calls are given as the source filed them.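 How the source made its calls: active means compounds giving half or more protection of infected cells from virus-caused growth loss, again on retest; inactive means the rest.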

Tested on: CEM cells HIV-1 protection, formazan growth assay
Assay: NCI AIDS Antiviral Assay
Conditions: for IC50: measured here: growth of uninfected CEM cells
Procedure, shortened: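 Protection of CEM cells against HIV-1 was scored from cell growth (soluble formazan) across five concentrations, with parallel uninfected cells. Lack of protection may reflect toxicity.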

| Structure (SMILES) | EC50 [µM] | IC50 [µM] | outcome |
| --- | --- | --- | --- |
| BrCc1ccccc1C[P+](c1ccccc1)(c1ccccc1)c1ccccc1 | > 200 | 2.45 |  |
| C[P+]1(C)CCc2c1ccc1ccccc21 |  |  | inactive |
| COC(=O)[C@@](NC(=O)OCc1ccccc1)([C@H](C)O)C(F)(F)F | > 200 | 110 |  |
| CC(=O)OCC(c1ccccc1)N1C(=O)C(OC(C)=O)[C@H](OC(C)=O)C1=O (stereo partly specified) | > 661 | > 661 |  |
| Cc1ccc(S[C@@H](C)[C@@](O)(C(N)=O)c2ccccc2)cc1 | > 200 | 30.2 |  |
| COc1ccc(/C=C2\Oc3cc(OC(C)=O)ccc3C2=O)cc1 | > 200 | 37.2 |  |
| OC1(c2ccc(Cl)cc2)c2ccccc2-c2nc3ccccc3n21 (stereo unspecified) | > 200 | 174 |  |
| O=c1cc(-c2ccccc2)oc2ccccc12 | > 135 | 75.9 |  |
| CC(C)=CCC1(O)C(=O)c2ccccc2C1(O)C(=O)O (stereo unspecified) | > 200 | > 200 |  |
| CCCCCCCCCCCCCCCCCCCCCCCCCCCCCC=C(c1cc(Cl)c(OC)c(C(=O)OC)c1)c1cc(Cl)c(OC)c(C(=O)OC)c1 | > 2.24 | > 2.24 |  |
| Cc1ccc(/C=N/NS(=O)(=O)c2ccccc2)c(C)c1 |  |  | inactive |
| CCCN(CCC)C(=O)Cc1c2n(c3ccccc13)CCCc1ccccc1-2 | > 13.8 | > 13.8 |  |
| CCOC(=O)CSc1cc(C)c2c(N)c(C(=O)OCC)sc2n1 | > 72.4 | > 72.4 |  |
| CC1(C)CC(O)C(C)(C)[C@@H](O)C1 (stereo partly specified) |  |  | inactive |
| CC(=O)NC(CCCNC(=O)N(CCCl)N=O)C(=O)NCc1ccccc1 (stereo unspecified) | > 631 | 69.2 |  |
| COc1cc2c(Cc3cc(OCc4ccccc4)ccc3N)nccc2c(OC)c1OC |  |  | inactive |
| CCCN(CCC)CCc1cc(C(C)=O)n(S(=O)(=O)c2ccc(C)cc2)c1 | > 589 | 263 |  |

| Structure (SMILES) | EC50 [µM] | IC50 [µM] | outcome |
| --- | --- | --- | --- |
| COc1cc2cccc(N)c2cc1OC | > 200 | > 200 |  |
| COC(=O)C1=C(/C=C/C(C)=O)NC(C)=C(C(=O)OC(C)C)C1c1ccccc1Cl (stereo unspecified) | > 200 | 0.575 |  |
| CC(N1CCS(=O)(=O)CC1)P(=O)(O)O (stereo unspecified) | > 200 | > 200 |  |
| CCOP(C)(=O)C(Cc1c[nH]c2ccccc12)C(=O)O (stereo unspecified) | > 200 | > 200 |  |
| Cc1ccc(N2C(=O)C3c4[nH]c5ccc(C)cc5c4C4CCC(C(C)(C)C)CC4C3C2=O)cc1 (stereo unspecified) | > 200 | 13.8 |  |
| CN(C)CCNc1c2ccccc2nc2cccc([N+](=O)[O-])c12 | > 2 | 0.024 |  |
| CCCCCCCCCCCCCCCC(=O)OCC1CCCN2CCCCC12 (stereo unspecified) | > 200 | > 200 |  |
| CN1C/C(=C/c2ccc(N(C)C)cc2)C(=O)/C(=C/c2ccc(N(C)C)cc2)C1 | > 200 | > 200 |  |
| COc1ccc2c(c1)C(=O)C1CC(=O)CCC21 (stereo unspecified) | > 288 | > 288 |  |
| CNC(=O)SC1=NS(=O)(=O)c2ccc(Cl)cc2N1 | 51.3 | 186 |  |
| Nc1c(C(=O)O)c2nc3c(CO)cccc3oc-2cc1=O | > 200 | 2.14 |  |
| Nc1nn2cc3c(nc2c1N=Nc1ccc(Cl)cc1)CCCC3 |  |  | inactive |
| C#CCNC(=O)NC(CCCNC(=O)OCc1ccccc1)C(=O)OCc1ccccc1 (stereo unspecified) | > 83.2 | > 83.2 |  |
| COc1c(OC)c(C2(O)C(=O)N(C)c3ccccc32)c(OC)c(OC)c1C1(O)C(=O)N(C)c2ccccc21 (stereo unspecified) | > 200 | > 200 |  |
| COc1ccc(/C=C2\N=C(N3CCOCC3)NC2=O)cc1 | > 200 | > 200 |  |
| CCSC(=O)OCn1ncc2cc([N+](=O)[O-])ccc21 | > 200 | 95.5 |  |
